For data set [1] the following is noted: in water; literature value, reference number not given; cited from earlier work.
In data set [2] the test system is MCF-7 (ER+) cells. Description: MTS viability assay (dark and 457 nm light) in MCF-7. The format is cell-based. As to conditions: for IC50: MCF-7, 457 nm for 12 min at 6 h, 24 h incubation, MTS; for SI = selectivity index, [IC50(ER‑)]light/[IC50(ER+)]light: MDA-MB-453 (ER-) vs MCF-7 (ER+). (In general: Formazan colour is commonly taken as a measure of viable cells.)
Description: (§2) We determined the cytotoxicity of all the complexes using the well-established MTS assay against two breast cancer cell lines: MCF-7, which is ER+, and MDA-MB-453, which is ER-.
(§3) In this experiment, the cells were irradiated with blue light (457 nm) for 12 min.
(§4) MDA-MB-453 and MCF-7 cells were grown in high-glucose Dulbecco’s Modified Eagle Medium (DMEM) containing 10% fetal bovine serum at 37 °C with 5% CO2 in humidified air.
(§5) For viability experiments, cells were seeded at a density of 20,000 cells per well in Greiner-Bio black μClear plates. After 24 h, the corresponding ruthenium complexes were added at the appropriate concentrations (30 nM to 100 μM for complexes 1-4 and 30 nM to 20 μM for 5–7, < 1% DMSO) and allowed to incubate. For the phototoxicity experiments, the plate was removed at the six-hour time point and irradiated for 12 min using a Lumidox 457 nm 96-LED array set to 8 mA (2 mW/cm^2, a total of 1.2 J/s). After an overall 24 h incubation period, the media were replaced with fresh media containing an MTS/PMS mixture as per the Promega protocol (MTS: 3-(4,5-dimethylthiazol-2-yl)-5-(3-carboxymethoxyphenyl)-2-(4-sulfophenyl)-2H-tetrazolium; PMS: phenazine methosulfate). After an additional 4 h had passed, the absorbance at 490 nm (MTS) and 635 nm (background) was measured. Cell viability was calculated from the dose-response curve of the absorbance (MTS – background).

For data set [3], the system named is MDA-MB-453 (ER-) cells. Description: MTS viability assay (dark and 457 nm light) in MDA-MB-453. Format: cell-based. As to conditions: MDA-MB-453, 457 nm for 12 min at 6 h, 24 h incubation.
Description: as §2, §3, §4, §5
On the set-up of data set [4]: method as in doi:10.1021/ja00432a028. As to conditions: H2O; cited from earlier work.
Data set [5] can be described thus: DLS particle size distribution in Tris-HCl buffer. The format is physicochemical. As to conditions: 20 μM. The text has this: Given the amphiphilic nature of the complexes, with the functionalized phenanthroline ligand serving as a lipophilic tail and the Ru(II) core serving as a hydrophilic headgroup, it was of interest to investigate the potential tendency of the complexes to form micelle-like aggregates in aqueous solutions. […] Our focus was to investigate the aggregation behavior in a purely aqueous environment, without the use of cosolvents such as DMSO. Since complexes 5–7 could not be solubilized under these conditions, they were not included in the DLS analysis.
The particle size distribution of the complexes was determined by dynamic light scattering (DLS) using a Particle Analyzer Litesizer 500 (Anton Paar, Austria) at 25 °C. 20 μM solutions of complexes 1–4 and of [Ru(bpy)3]-Cl2 in Tris-HCl buffer, as well as 20 μM solutions of complexes 1–4 in Gibco DMEM (Dulbecco’s Modified Eagle Medium with high glucose, L-glutamine, pyruvate, 10% FBS, and without phenol red), were analyzed by DLS. The experiments were performed in triplicate, yielding similar results.

The nature of data set [6]: Emission lifetime (time-resolved luminescence decay). The format is physicochemical. As to the method:
Given the changes in the aggregation profiles of the complexes in cell culture medium containing FBS, as observed by DLS analysis, we also examined their emission lifetimes under these conditions (Table and Figure S52F–J). For this analysis, an 80 μM solution of each complex was utilized to achieve an improved signal-to-background ratio. […] However, the emission decay behavior of complexes 2–4 differs markedly from that of the estrogen-free control and from that of [Ru(bpy)3]^2+. In a cell culture medium with 10% FBS, the decay profile of complex 1 can be fitted to a biexponential model, comprising a short-lived component (355 ns, 6.6% contribution), consistent with the monomeric species, and a long-lived component (672 ns, 93.4% contribution) attributable to the aggregated form. […] Consistent with the behavior observed in Tris-HCl buffer, the addition of MeCN to a solution of complex 3 in FBS-containing medium led to aggregate disruption once the MeCN content reached 30%, as evidenced by a decrease in emission lifetime to 436 ns, signaling the dominance of the nonaggregated form (Figure f). Overall, our findings collectively confirm that aggregation correlates with the observed emission enhancement in aqueous solutions and that complexes 1–4 predominantly exist as self-assembled micelle-like aggregates in the cell culture medium used for our cellular studies. Nevertheless, it cannot be unequivocally determined from these experiments whether the complexes preserve their aggregated form in the intracellular environment.
(§1) ^1H, ^1H–^1H COSY, and ^13C NMR spectra were recorded on a 500 MHz NMR spectrometer (Agilent). Absorption spectra were acquired by using a JASCO V-750 spectrophotometer. For recording the emission spectra, we used an Edinburgh Instruments FS5 spectrofluorometer equipped with a red-sensitive Hamamatsu R13456 photomultiplier tube (PMT) and a 150 W xenon arc lamp as the light source. All spectra were corrected for detector response using the correction files and software (Fluoracle) provided by the manufacturer. The luminescence quantum yields of the complexes were calculated using the optically dilute method with an air-equilibrated aqueous solution of [Ru(bpy)3]-Cl2 (Φem = 0.049, λex = 436 nm) as the standard solution. , Emission lifetime measurements were performed using an Edinburgh Instruments mini-τ lifetime spectrometer with a bandpass filter (±40 nm bandpass) at 650 nm. The excitation source was an Edinburgh Instruments picosecond pulsed LED (EPLED-320) with a peak wavelength of 326.8 nm and a pulse width of 910 ps. The detector was a thermoelectrically cooled, high-speed, red-sensitive photomultiplier tube (Hamamatsu H10720-01). The data were analyzed by using the software provided by the manufacturer (Fluoracle). For emission lifetime calculations, the experiments were performed in triplicate, yielding similar results. The MS spectra were acquired using an LC20AD Shimadzu connected to Shimadzu LCMS-2010EV, with a flow rate of 0.4 mL/min MeOH or MeCN + 0.1% formic acid. LCMS analysis was carried out on an Agilent 1260 Infinity with a Raptor C18 column (50 mm × 2.1 mm, 2.7 μm particle size). A two-minute gradient from 5% to 95% MeCN in water was used, supplemented with 0.1% formic acid.

Data set [7] can be described thus: UV-vis absorption, emission spectra and luminescence quantum yield. The format is physicochemical. As to conditions: for Φ (luminescence quantum yield): air-equilibrated; for λem: excitation 450 nm. As to the method: We studied the absorption and emission properties of the complexes in different solvents including MeCN, MeOH, and Tris-HCl aqueous buffer (0.05 M, pH 7.4). Due to solubility limitations, only complexes 1–4 were studied in Tris-HCl aqueous buffer. Indicatively, the comparative UV–vis absorption and emission spectra of complexes 4 and 7 in MeCN at 298 K are presented in Figure e.
The photophysical data are summarized in Tables and , and all measurements were conducted in air-equilibrated solvents.
as §1

In data set [8] the test system is MCF-7 (ER+) cells. Description: Luminescence microscopy of treated ER+ cells. Format: cell-based. As to conditions: Figure S62, 6 h incubation. As to the method: 3 Microscopy imaging of cells incubated with complex 3 (20 μΜ) and complex 4 (10 μΜ) for 6 h: brightfield (left), photosensitizer luminescence (middle), and overlaid (right) images. (b) Cellular uptake by ICP-MS of complexes 1, 3, and 4 (20 μM, 6 h) in MCF-7 (ER+) and MDA-MB-453 (ER−) cells.
For imaging experiments, cells were seeded at a density of 20,000 cells per well in Greiner-Bio black μClear plates. After 24 h, the corresponding ruthenium complexes were added at the appropriate concentrations. After 6 h, the cells were washed 3 times with media, and the media were replaced with phenol-red-free media. Compounds were imaged on an Eclipse-Ti2 Widefield system (Nikon), equipped with a Prime 95B sCMOS camera (Teledyne), pE-400 LED light source (CoolLED), a 20× or 40× objective, and emission filters for green (515/30 nm), orange (600/50 nm), red (641/75 nm), and far-red (705/72 nm). The bright-field channel was used to autofocus each well, after which the complexes were excited using a 450 nm laser and the red emission channel collected.

In data set [9] the test system is MCF-7 (ER+) and MDA-MB-453 (ER−) cells. Description: Cellular uptake of ruthenium by ICP-MS. Format: cell-based. As to conditions: 20 μM, 6 h, MCF-7 vs MDA-MB-453. As to the method:
Thus, the cellular uptake of complexes 3 and 4 was evaluated and compared to the control complex 1 in ER+ (MCF-7) and ER– (MDA-MB-453) cell lines using inductively coupled plasma mass spectrometry (ICP-MS) (Figure b). […] This trend is consistent with its increased lipophilicity and the brighter red luminescence observed by microscopy for this complex. It is well established that lipophilicity can enhance membrane permeability and cellular internalization.
Cells were seeded at the appropriate density in 6-well plates (1 × 10^6 cells per well for MDA-MB-453 and 400,000 cells per well for MCF-7) and allowed to adhere for 24 h. Ruthenium complexes were added to the wells by direct dilution of a 10 mM DMSO stock solution to yield a final concentration of 20 μM in culture medium. After 6 h of incubation, the medium was removed, and the cells were washed three times with phosphate-buffered saline (PBS) to eliminate extracellular ruthenium. Cells were subsequently detached using trypsin, collected by centrifugation, and counted. […] The monitored isotope was 101Ru. A set of ruthenium calibration standards was used to establish and model the linear relationship between signal and concentration before the samples were injected, signal measured, and averaged across three consecutive signal acquisitions. The amount of metal detected in the cell samples was normalized to ppb per 1,000,000 cells.

Setting [10] is: Tris-HCl buffer (0.05 M, pH 7.4).
[11] abbreviates: cell culture medium (DMEM, 10% FBS, no phenol red), 80 μM.
The mark [12] stands for this setting: Tris-HCl buffer (0.05 M, pH 7.4), 298 K.
Setting [13] is: cell culture medium with 10% FBS, biexponential fit.

Molecules are shown by their SMILES. Where two headings read alike, the source gives them in different places. Where only a bound is given, the exact number is not on record here.

For `[Cl][Ru][Cl].c1ccc(-c2ccccn2)nc1.c1ccc(-c2ccccn2)nc1.c1ccc(-c2ccccn2)nc1` [[Ru(bpy)3]Cl2, reference compound], the “1O2 quantum yield (ΦΔ)” value in data set [1] is recorded as 0.41. For the same compound, the IC50 in data set [2] and in [3] was greater than 100 µM in each case. Moreover, the “SI = selectivity index, [IC50(ER‑)]light/[IC50(ER+)]light” value in [2] is given as “NPD ^b”. Further, the “Φ (luminescence quantum yield)” value in data set [4] is recorded as 4.9^55%; in data set [7] (MeCN (298 K)) it was 1.6%. Besides, the “aggregate size (DLS, particle size distribution by intensity)” value in [5] is recorded as “no visible aggregates were observed”. Also, the τ1 in data set [6] (MeCN) amounted to 156 ns; in [6] (MeOH), 205 ns; in [6] (setting [10]) it was 329 ns; in [6] (setting [11]), 357 ns. Further, the λabs in data set [7] (setting [12]) was 453 nm. Further, the λem in data set [7] (setting [12]) was 630 nm.
Turning to `CCCCc1cn(-c2cc3cccnc3c3ncccc23)nn1.[Cl-].[Cl-].[Ru+2].c1ccc(-c2ccccn2)nc1.c1ccc(-c2ccccn2)nc1` [Complex 1, [Ru(bpy)2(L-1a)]Cl2], the “intracellular luminescence, ER+ versus ER– cells (microscopy)” value in data set [8] is “no notable difference in luminescence between the two cell lines”. Further, in data set [2], the IC50 (as a rule, the midpoint of a concentration-inhibition curve) is greater than 100 µM and the “SI = selectivity index, [IC50(ER‑)]light/[IC50(ER+)]light” value is recorded as “NPD ^b”. This compound showed an IC50 in data set [3] greater than 100 µM. In addition, the “aggregate size (DLS, particle size distribution by intensity)” value in [5] is “around 100 nm”. Also, the “uptake in ER+ cells compared to ER– cells (ICP-MS)” value in data set [9] is “slightly higher accumulation in ER– cells than in ER+ cells”. The compound further registered a τ1 in data set [6] (MeCN) of 165 ns. In data set [6] (MeOH), this compound showed a τ1 of 225 ns. The τ1 in data set [6] (setting [10]) was 599 ns. Besides, the “contribution of τ1 (short-lived component) to the decay” value in data set [6] (Tris-HCl buffer, biexponential fit) was “less than 1%”. In addition, in data set [6] (setting [11]), the τ1 came out at 355 ns and the τ2 turned out to be 672 ns. In addition, in [6] (setting [13]), the “contribution of τ1 to the decay” value is reported as 6.6% and the “contribution of τ2 to the decay” value is 93.4%. Moreover, in data set [7] (MeCN (298 K)), the ε is recorded as 1.2 × 10^4 M^–1 cm^–1, the λabs was 450 nm, the “Φ (luminescence quantum yield)” value was determined as 2.1% and the λem came to 625 nm. Moreover, in data set [7] (setting [12]), the ε was 1.1 × 10^4 M^–1 cm^–1, the λabs is given as 449 nm, the “Φ (luminescence quantum yield)” value is listed as 5.6% and the λem came to 635 nm.
